Measurements reported in patent US10183047B2, “Chromium-containing compositions in combination with Phyllanthus emblica and shilajit having synergistic effects for improving endothelial function and cardiovascular health” (Natreon, Inc., priority 2014, dated 2019).
Marks after values point to notes of the source that are not given here.

How the values were obtained:
Format in all cases: in vivo, human
endothelial function [1] = test: Reflection index (RI), salbutamol challenge test, metabolic syndrome subjects; conditions: for RI: MS, 400 mcg; for Absolute change in RI / RI, % Post Tt / RI, % Pre Tt: metabolic syndrome subjects (Example 4), chromium products 400 mcg; for Absolute change in RI / RI, % Post Tt: after 12 weeks of treatment; for RI, % Pre Tt: pre-treatment
Text: (§1) A salbutamol (albuterol) challenge test employing digital volume plethysmography was used to assess endothelial function as reported by Chowienczyk et al., “Photoplethysmographic assessment of pulse wave reflection: blunted response to endothelium dependant beta 2-adrenergic vasodilation in type 2 diabetes mellitus,” J. Am. Coll. Cardiol. (1999 December) 34(7):2007-14; and Naidu, et al., “Comparison of two β2 adrenoceptor agonists by different routes of administration to assess human endothelial function,” Indian J. Pharmacol. (2007) 39:168-9. The patients were examined in supine position after 5 minutes of rest. A digital volume pulse (DVP) was obtained using a photo plethysmograph (Pulse Trace PCA2, PT200, Micro Medical, Gallingham, Kent, UK) transmitting infrared light at 940 nm, placed on the index finger of the right hand. The signal from the plethysmograph was digitized using a 12 bit analogue to digital converter with a sampling frequency of 100 Hz. DVP waveforms were recorded over 20 second period and the height of the late systolic/early diastolic portion of the DVP was expressed as a percentage of the amplitude of the DVP to yield the reflection index (RI), per the procedure described in detail by Millasseau et al., “Determination of age related increases in large artery stiffness by digital pulse contour analysis,” Clinical Science (2002) 103: 371-377. Three DVP recordings were taken, and measurements of reflection index (RI) were calculated and the mean value was determined. Patients were then administered 400 μg of salbutamol by inhalation. After 15 minutes three measurements of RI were obtained again and the difference in mean RI before and after administration of salbutamol was used for assessing endothelial function. A change of ≤6% in RI post-salbutamol was considered as endothelial dysfunction.
(§2) Patients included in the study, were of either gender, aged 30-68 years, having endothelial dysfunction defined as ≤6% change in reflection index (RI) on post salbutamol challenge test and central obesity as defined by The International Diabetes Federation guidelines, dated 2006, and any two of the following conditions:
(§3) After screening, all the eligible subjects were randomized to receive either one of the three treatments orally for duration of 12 weeks: group 1—one capsule of Crominex®3+ 200 mcg once daily; group 2—one capsule 400 mcg once daily; group 3—one capsule of Placebo once daily.
(§4) Subjects were reviewed for follow up at 4 weeks, 8 and 12 weeks of therapy. At each visit they were evaluated for efficacy and safety. Pharmacodynamic evaluation for endothelial function was conducted at baseline and end of treatment. Blood samples were collected for evaluation of biomarkers before and at end of treatment. Safety lab investigations for hematological, hepatic and renal biochemical parameters were conducted before and at the end of the study and also as and when required (in case of any adverse drug reaction (ADR)). Subjects were enquired for the presence of ADR and the same was recorded in the case report form. Compliance to therapy was assessed by pill count method.
(§5) Assessment of endothelial function, biomarkers, safety parameters and primary and secondary efficacy parameters and data analysis were performed as described under the study with type 2 diabetic subjects in Example 1.
(§6) When the results with Crominex® 3+ in the above two examples were highly significant, especially with the 400 mcg once daily dose in type 2 diabetics, two more clinical studies (EXAMPLES 3 & 4) were conducted at the same institute, following the same methodology as described earlier, on the individual components of Crominex® 3+, i.e., chromium chloride and Phyllanthus emblica+Shilajit, and other chromium supplements available in the market, i.e., chromium picolinate, chromium polynicotinate and chromium dinicocysteinate, in type 2 diabetics as well as in subjects with metabolic syndrome symptoms.

nitric oxide (NO) [2] = test: Nitric oxide level, spectrophotometric, type 2 diabetics; conditions: for NO: DM, 400 mcg; for Mean percentage change in NO / NO Post Tt / NO Pre Tt: type 2 diabetics (Example 3), chromium products 400 mcg; for Mean percentage change in NO: 12 week treatment; for NO Post Tt: post-treatment, 12 weeks; for NO Pre Tt: pre-treatment
Protocol: (§7) The present clinical study is a prospective, randomized, double blind, placebo-controlled study. Patients of either sex, aged 30-65 years, fasting plasma glucose of 110-126 mg/dl, a glycosylated hemoglobin (HbA1c) between 6.5% and 8% and taking stable dose of anti-diabetic treatment (metformin 1500-2000 mg/day) for the past 8 weeks prior to the screening visit; and having endothelial dysfunction defined as ≤6% change in reflection index (RI) on post salbutamol challenge test were included in the study. Patients with severe uncontrolled hyperglyceamia, uncontrolled hypertension, cardiac arrhythmia, impaired hepatic or renal function, history of malignancy or stroke, smoking, chronic alcoholism, any other serious disease requiring active treatment and treatment with any other herbal supplements, were excluded from the study.
(§8) After screening, all the eligible subjects were randomized to receive either one of the three treatments orally for duration of 12 weeks—Group1—one capsule of Crominex®3+, 200 mcg once daily, Group 2—one capsule Crominex®3+, 400 mcg once daily; Group 3—one capsule of placebo once daily.
as §4, with “Subjects were required for follow” for “Subjects were reviewed for follow”, “up at 4, 8 and” for “up at 4 weeks, 8 and”, “conducted at every visit. Blood samples” for “conducted at baseline and end of treatment. Blood samples”, “and at the end of” for “and at end of”, “drug reaction (ADR). Subjects were” for “drug reaction (ADR)). Subjects were”
(§9) Nitric oxide, MDA, Glutathione and levels were estimated spectrophotometrically as follows. Malondialdehyde (MDA) levels were determined as described in Vidyasagar, et al., “Oxidative stress and antioxidant status in acute organophosphorous insecticide poisoning,” Indian J. Pharmacol. (April 2004) 36(2): 76-79. Glutathione levels were determined as described in G. L. Ellman, Arch. Biochem. Biophys. (1959) 82: 70-77 (original determination). Nitric oxide levels were estimated spectrophotometrically as described in Miranda, et al., “A Rapid, Simple Spectrophotometric Method for Simultaneous Detection of Nitrate and Nitrite,” NITRIC OXIDE: Biology and Chemistry (2001) Vol. 5, No. 1, pp. 62-71. hsCRP (high sensitivity C-reactive protein) was determined by ELISA method.
as §6

malondialdehyde (MDA) [3] = test: Malondialdehyde level, spectrophotometric, type 2 diabetics; conditions: for MDA: DM, 400 mcg; for Mean percentage change in MDA / MDA Post Tt / MDA Pre Tt: type 2 diabetics (Example 3), chromium products 400 mcg; for Mean percentage change in MDA: 12 week treatment; for MDA Post Tt: post-treatment, 12 weeks; for MDA Pre Tt: pre-treatment
Protocol: as §7, §8
as §4, with “Subjects were required for follow” for “Subjects were reviewed for follow”, “up at 4, 8 and” for “up at 4 weeks, 8 and”, “conducted at every visit. Blood samples” for “conducted at baseline and end of treatment. Blood samples”, “and at the end of” for “and at end of”, “drug reaction (ADR). Subjects were” for “drug reaction (ADR)). Subjects were”
as §9, §6

endothelial function [4] = test: Reflection index (RI), salbutamol challenge test with digital volume plethysmography, type 2 diabetics; conditions: for RI: DM, 400 mcg; for Absolute change of RI / Reflection index (%) Post Tt / Reflection index (%) Pre Tt: type 2 diabetics (Example 3), chromium products 400 mcg; for Absolute change of RI: 12 week treatment; for Reflection index (%) Post Tt: post-treatment, 12 weeks; for Reflection index (%) Pre Tt: pre-treatment
Protocol: as §7, §8
as §4, with “Subjects were required for follow” for “Subjects were reviewed for follow”, “up at 4, 8 and” for “up at 4 weeks, 8 and”, “conducted at every visit. Blood samples” for “conducted at baseline and end of treatment. Blood samples”, “and at the end of” for “and at end of”, “drug reaction (ADR). Subjects were” for “drug reaction (ADR)). Subjects were”
Procedure for Assessment of Endothelial Function by Determination of Reflection Index (RI).
as §1
The primary efficacy measure was a change in endothelial dysfunction as assessed by more than 6% change in reflection index at 12 weeks. […]

nitric oxide (NO) [5] = test: Nitric oxide level, metabolic syndrome subjects; conditions: for NO: MS, 400 mcg; for NO Post Tt / Mean percentage change in NO / NO Pre Tt: metabolic syndrome subjects (Example 4), chromium products 400 mcg; for NO Post Tt: after 12 weeks of treatment; for Mean percentage change in NO: after 12 weeks treatment; for NO Pre Tt: pre-treatment
Protocol: as §9, §2, §3, §4, §5, §6

malondialdehyde (MDA) [6] = test: Malondialdehyde level, metabolic syndrome subjects; conditions: for MDA: MS, 400 mcg; for MDA Post Tt / Mean percentage change in MDA / MDA Pre Tt: metabolic syndrome subjects (Example 4), chromium products 400 mcg; for MDA Post Tt: after 12 weeks of treatment; for Mean percentage change in MDA: after 12 weeks treatment; for MDA Pre Tt: pre-treatment
Protocol: as §9, §2, §3, §4, §5, §6

Compound	RI (endothelial function [1])	Absolute change in RI (endothelial function [1])	RI, % Post Tt (endothelial function [1])	NO (nitric oxide (NO) [2])	Mean percentage change in NO (nitric oxide (NO) [2])	NO Post Tt (nitric oxide (NO) [2])	NO Pre Tt (nitric oxide (NO) [2])	MDA (malondialdehyde (MDA) [3])	Mean percentage change in MDA (malondialdehyde (MDA) [3])	MDA Post Tt (malondialdehyde (MDA) [3])	MDA Pre Tt (malondialdehyde (MDA) [3])	RI (endothelial function [4])	Absolute change of RI (endothelial function [4])	Reflection index (%) Post Tt (endothelial function [4])	Reflection index (%) Pre Tt (endothelial function [4])	NO (nitric oxide (NO) [5])	NO Post Tt (nitric oxide (NO) [5])	Mean percentage change in NO (nitric oxide (NO) [5])	NO Pre Tt (nitric oxide (NO) [5])	MDA (malondialdehyde (MDA) [6])	also measured
chromium dinicocysteinate	−0.98%	−0.98 ± 0.76 #@NS %	−4.58 ± 0.89 @ %	7.08%	7.08 ± 2.40@NS %	30.91 ± 2.87 μM/L	28.88 ± 2.72 μM/L	−6.62%	−6.62 ± 1.20@NS %	3.72 ± 0.30 nmol/mL	3.98 ± 0.31 nmol/mL	−1.03%	−1.03 + 0.34 #NS %	−3.82 ± 0.74 %	−4.85 ± 0.74^ %	7.68%	32.66 ± 3.88 μM/L	7.68 ± 2.25%	30.33 ± 3.58 μM/L	−6.7%	RI, % Pre Tt (endothelial function [1]): −3.55 ± 1.09 ^ %; MDA Post Tt (malondialdehyde (MDA) [6]): 3.74 ± 0.42 nM/ml; Mean percentage change in MDA (malondialdehyde (MDA) [6]): −6.67 ± 1.47%; MDA Pre Tt (malondialdehyde (MDA) [6]): 4.00 ± 0.42 nM/ml
chromium picolinate	−3.25%	−3.25 ± 0.98 #@NS %	−6.45 ± 0.40 %	11.1%	11.09 ± 4.73@NS %	32.96 ± 2.54 μM/L	29.75 ± 2.92 μM/L	−6.03%	−6.03 ± 1.65 #NS %	3.78 ± 0.34 nmol/mL	4.02 ± 0.33 nmol/mL	−2.2%	−2.22 + 0.89 # %	−2.46 ± 0.90 %	−4.68 ± 1.24^ %	13.9%	32.94 ± 3.79 μM/L	13.92 ± 2.65%	28.94 ± 3.56 μM/L	−7.1%	MDA Post Tt (malondialdehyde (MDA) [6]): 3.60 ± 0.46 nM/ml; Mean percentage change in MDA (malondialdehyde (MDA) [6]): −7.14 ± 1.70%; MDA Pre Tt (malondialdehyde (MDA) [6]): 3.87 ± 0.47 nM/ml
O.O.O.O.O.O.[Cl][Cr]([Cl])[Cl] [Chromium chloride, Chromium chloride (CrCl3.6H2O)]	−0.1%	−0.10 ± 1.34 #@ %	−3.43 ± 1.49 NS %	6.98%	6.98 ± 10.15@NS %	29.60 ± 2.65 μM/L	27.74 ± 2.01 μM/L	−5.14%	−5.14 ± 1.92 #NS %	3.73 ± 0.39 nmol/mL	3.93 ± 0.39 nmol/mL	−0.57%	−0.57 + 0.36 #NS %	−3.22 ± 0.85 %	−3.79 ± 0.82^ %	5.5%	30.99 ± 4.46 μM/L	5.50 ± 1.73%	29.39 ± 4.43 μM/L	−4.65%	RI, % Pre Tt (endothelial function [1]): −3.06 ± 1.98%; MDA Post Tt (malondialdehyde (MDA) [6]): 3.76 ± 0.42 nM/ml; Mean percentage change in MDA (malondialdehyde (MDA) [6]): −4.65 ± 1.95%; MDA Pre Tt (malondialdehyde (MDA) [6]): 3.94 ± 0.42 nM/ml
chromium polynicotinate	−1.51%	−1.51 ± 1.78 #@NS %	−3.85 ± 0.86 @ %	5.33%	5.33 ± 2.25 #@NS %	31.86 ± 2.55 μM/L	30.26 ± 2.48 μM/L	−5.56%	−5.56 ± 1.34 #NS %	3.75 ± 0.24 nmol/mL	3.97 ± 0.23 nmol/mL	−1.04%	−1.04 + 0.39 #NS %	−3.71 ± 1.1 $ %	−4.3 ± 1.2%	5.35%	32.93 ± 4.66 μM/L	5.35 ± 0.96%	31.26 ± 4.46 μM/L	−5.4%	RI, % Pre Tt (endothelial function [1]): −2.39 ± 2.18 ^ %; MDA Post Tt (malondialdehyde (MDA) [6]): 3.83 ± 0.41 nM/ml; Mean percentage change in MDA (malondialdehyde (MDA) [6]): −5.38 ± 1.31%; MDA Pre Tt (malondialdehyde (MDA) [6]): 4.04 ± 0.40 nM/ml
